The target in test [1] is anticalin FluC, mutein of Pieris brassicae bilin-binding protein (Bbp): Asn34Ser, Ser35Lys, Val36Asn, Glu37Gly, Gly40Arg, Asn58Arg, His60Thr, Ile69Gln, Leu88Arg (Pieris brassicae, UniProt P09464, E52G/F142H/F83V/G55R/H75T/I84Q/K102S/K110R/K131R/K150M/L103R/N112G/N16D/N36Q/N49S/N73R/Q140L/S50K/V108K/V51N/Y105V/Y129R). To be noted: fluorescence titration, excitation 280 nm, emission 340 nm, 1 μM anticalin, PBS with 1 mM EDTA, pH 7.4, 25° C.; [P]t additionally fitted as a free parameter.
UniProt P09464, sequence (P09464 other isoform, or with tags, fused parts or gaps with the stated changes): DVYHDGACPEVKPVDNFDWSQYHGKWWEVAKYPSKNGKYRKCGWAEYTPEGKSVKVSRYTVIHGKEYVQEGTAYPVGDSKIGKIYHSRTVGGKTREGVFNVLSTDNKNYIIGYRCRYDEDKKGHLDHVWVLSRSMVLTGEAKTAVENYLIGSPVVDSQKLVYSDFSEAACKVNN

In test [2] the target is biotinylated synthetic hepatitis C-peptide epitope, peptide fragment no. 59 from the surface protein NS4 of HCV (SEQ ID NO:13) (Hepatitis C virus genotype 1a, UniProt P27958). The test is described as follows: Sandwich-ELISA for detection of hepatitis C peptide epitope. Particulars: ranking of signal strength. A general note: In an ELISA, binding on a coated surface is turned into a signal by an enzyme label.
Description: For the ELISA, the wells in a microtiter plate (ELISA-STRIP, 2×8 wells, KO, F-form, high binding capacity, Greiner) were each filled with 200 μl of a solution of 20 mg/ml HSA in 50 mM NaHCO3 pH 9.6 and were incubated for 1 hour at RT. After removal of the solution, the unoccupied binding sites were saturated with 200 μl 3% w/v BSA in PBS with 0.5% v/v Tween 20 for 1 hour. After washing three times with PBST, 50 μl of the undiluted periplasmic protein extract were filled into the respective first well of a row. 50 μl PBS were first placed into each of the subsequent wells of each row. 50 μl of the periplasmic protein extract were then pipetted into the respective second well, were mixed, and, starting from this, 1:2 dilutions in the subsequent wells were prepared in a stepwise manner. The periplasmic protein extract with the Bbp, which was made using pBBP22 as expression plasmid, served as a control.
After 1 hour incubation at RT washing followed three times with PBST, followed by pipetting of 200 μl of the ligand solution (SEQ ID NO:13, 1 μM in PBST) into each well. […] To this end, 100 μl of a solution of 0.5 mg/ma p-nitrophenylphosphate (Amresco) in AP-buffer were placed in each well and product formation was measured by absorption at 405 nm in a SpectraMax 250 photometer (Molecular Devices) as dA/dt number.

The nature of test [3]: Fluorescence titration (decrease of intrinsic protein fluorescence) with ligand fluorescein. In kind it is binding. Particulars: measurement for comparison, fluorescein ligands. As for the experimental part:
The ligand-binding characteristics of the anticalins, were then determined by fluorescence titration. Here, the decrease in the intrinsic tyrosine and tryptophan fluorescence of the protein upon complex formation with the ligand was measured. The measurements were made with a fluorescence photometer (MS III, Photon Technology International Inc.) at an excitation wavelength of 280 nm (slit width 5 nm) and emission wavelength of 340 nm (slit width 10 nm). Fluorescein, 4-amino-fluorescein as well as its conjugate with glutaric acid from Example 2 were used as ligands.
PBS with addition of 1 mM EDTA, pH 7.4 (adjusted with NaOH) served as buffer system. […] For FluA and Bbp, the corrected calculated extinction coefficients in the presence of guanidinium chloride according to Gill and von Hippel (Anal. Biochem. 182 (1989), 319-326) of 59755 M^−1 cm^−1 (FluA) as well as 54150 M^−1 cm^−1 (Bbp) were used.
For the measurement, 2 ml of the anticalin solution was applied in a quartz cuvette equipped with a stirring bar and thermostatted at 25° C. in the sample holder of the photometer. […] After every titration step the sample was incubated for 1 minute with stirring for equilibration, and the fluorescence signal was measured as an average value over 10 s. […]
[formula] Here, F is the normalized fluorescence intensity and [P]t the concentration of the anticalin. […]

As to `Nc1ccc2c(c1)C(=O)OC21c2ccc(O)cc2Oc2cc(O)ccc21` [4-Aminofluorescein, 4-amino-fluorescein], the “Dissociation constant (Kd)” value in test [1] is given as 299 ± 41 nM. In the case of `O=C(O)CCCC(=O)Nc1ccc2c(c1)C(=O)OC21c2ccc(O)cc2Oc2cc(O)ccc21` [4-Glutarylamidofluorescein, 4-glutarylamido-fluorescein], the “Dissociation constant (Kd)” value in test [1] was found to be 78 ± 3 nM. Turning to `O=C1OC2(c3ccc(O)cc3Oc3cc(O)ccc32)c2ccccc21` [Fluorescein, fluorescein], in test [1], the “Dissociation constant (Kd)” value turned out to be 411 ± 20 nM.

B1: HepC4: Anticalin (Bbp mutein) binding hepatitis C peptide epitope, produced as fusion with Strep-Tag II and albumin-binding domain (protein)
chain: DVYHDGACPEVKPVDNFDWSQYHGKWWEVAKYPQAPGKYGKCGWAEYTPEGKSVKVSPYNVIHGKEYFAEGTAYPVGDSKIGKIYHSWTGGGLTAEWVFNVLSTDNKNYIIGYPCRYDEDKKGHLDPVWVLSRSMVLTGEAKTAVENYLIGSPVVDSQKLVYSDFSEAACKVNNLAEAKVLANRELDKYGVSDYYKNLINNAKTVEGVKALIDEILAALP
modifications: left off: small tags and cut ends
Consider B1, for which the “sandwich-ELISA signal in comparison between anticalins” value in test [2] is on record as “followed by HepC4”.

B2: HepC1: Anticalin (Bbp mutein) binding hepatitis C peptide epitope, produced as fusion with Strep-Tag II and albumin-binding domain (protein)
chain: DVYHDGACPEVKPVDNFDWSQYHGKWWEVAKYPKTKQKYEKCGWAEYTPEGKSVKVSLYHVIHGKEYFFEGTAYPVGDSKIGKIYHSVTAGGFTSEQVFSVLSTDNKNYIIGYACYYDEDKKGHVDFVWVLSRSMVLTGEAKTAVENYLIGSPVVDSQKLVYSDFSEAACKVNNLAEAKVLANRELDKYGVSDYYKNLINNAKTVEGVKALIDEILAALP
modifications: left off: small tags and cut ends
Turning to B2, the “sandwich-ELISA signal in comparison between anticalins” value in test [2] is on record as “strongest”.

B3: Bbp: Recombinant bilin-binding protein from Pieris brassicae (modified, encoded on pBBP21/pBBP22), produced as a control (protein)
chain: DVYHDGACPEVKPVDNFDWSQYHGKWWEVAKYPNSVEKYGKCGWAEYTPEGKSVKVSNYHVIHGKEYFIEGTAYPVGDSKIGKIYHSLTYGGVTKENVFNVLSTDNKNYIIGYYCKYDEDKKGHQDFVWVLSRSMVLTGEAKTAVENYLIGSPVVDSQKLVYSDFSEAACKVNNLAEAKVLANRELDKYGVSDYYKNLINNAKTVEGVKALIDEILAALP
modifications: left off: small tags and cut ends
Consider B3, for which the “binding effect in fluorescence titration (dissociation constant)” value in test [3] was “so weak that a dissociation constant could not be determined”.

The values above are taken from patent US8536307B2, “Anticalins” (Pieris AG, priority 1997, dated 2013).
